From US9949475B2, “Composition comprising active ingredient, oil and ionic liquid” (priority 2011, dated 2018)
Converted amounts (≈) assume the structure as drawn. Read-outs that look alike come from different tables or passages of the source.

Assay: Solubility of agrochemical active ingredient in oil comprising ionic liquid
Format: physicochemical
Conditions: for solubility: 21 °C, thermodynamic from solid
Excerpt: Alternatively, the oil, which comprised the ionic liquid, was saturated with the active ingredient and the soluble fraction of active ingredient was quantified by means of HPLC. In the first line of the tables, in each case the weight ratios of oil to IL are given.

## Cn1cc(C(=O)Nc2ccccc2-c2cc(F)c(F)c(F)c2)c(C(F)F)n1 [fluxapyroxad, 3-(difluoromethyl)-1-methyl-N-(3′,4′,5′-trifluorobiphenyl-2-yl)pyrazole-4-carboxamide]
21° C., Oil/IL 20/80 weight ratio, IL N-butyl-N′-methylimidazolium acetate
  Solubility of fluxapyroxad with Agnique AMD 12 ® (N,N-dimethyldodecanamide, lauryl N,N-dimethylamide) as oil: 43.1 mg/mL
21° C., Oil/IL 20/80 weight ratio, IL N-ethyl-N′-methylimidazolium acetate
  Solubility of fluxapyroxad with Agnique AMD 12 ® (N,N-dimethyldodecanamide, lauryl N,N-dimethylamide) as oil: 39.5 mg/mL
21° C., Oil/IL 20/80 weight ratio, IL N-ethyl-N′-methylimidazolium isononanoate
  Solubility of fluxapyroxad with Agnique AMD 12 ® (N,N-dimethyldodecanamide, lauryl N,N-dimethylamide) as oil: 38.4 mg/mL
21° C., Oil/IL 20/80 weight ratio, IL Tetrabutylammonium [2-(2-methoxyethoxy)ethoxy]acetate
  Solubility of fluxapyroxad with Agnique AMD 12 ® (N,N-dimethyldodecanamide, lauryl N,N-dimethylamide) as oil: 37.5 mg/mL
21° C., Oil/IL 60/40 weight ratio, IL N-butyl-N′-methylimidazolium acetate
  Solubility of fluxapyroxad with Agnique AMD 12 ® (N,N-dimethyldodecanamide, lauryl N,N-dimethylamide) as oil: 55.9 mg/mL
21° C., Oil/IL 60/40 weight ratio, IL N-ethyl-N′-methylimidazolium acetate
  Solubility of fluxapyroxad with Agnique AMD 12 ® (N,N-dimethyldodecanamide, lauryl N,N-dimethylamide) as oil: 40.4 mg/mL
21° C., Oil/IL 60/40 weight ratio, IL N-ethyl-N′-methylimidazolium isononanoate
  Solubility of fluxapyroxad with Agnique AMD 12 ® (N,N-dimethyldodecanamide, lauryl N,N-dimethylamide) as oil: 48.1 mg/mL
21° C., Oil/IL 60/40 weight ratio, IL Tetrabutylammonium [2-(2-methoxyethoxy)ethoxy]acetate
  Solubility of fluxapyroxad with Agnique AMD 12 ® (N,N-dimethyldodecanamide, lauryl N,N-dimethylamide) as oil: 33.1 mg/mL
21° C., Oil/IL 90/10 weight ratio, IL N-ethyl-N′-methylimidazolium acetate
  Solubility of fluxapyroxad with Agnique AMD 12 ® (N,N-dimethyldodecanamide, lauryl N,N-dimethylamide) as oil: 38.2 mg/mL
21° C., Oil/IL 90/10 weight ratio, IL Tetrabutylammonium [2-(2-methoxyethoxy)ethoxy]acetate
  Solubility of fluxapyroxad with Agnique AMD 12 ® (N,N-dimethyldodecanamide, lauryl N,N-dimethylamide) as oil: 29.7 mg/mL
Oil or lipid, 21° C., Oil/IL 20/80 weight ratio, IL N-ethyl-N′-ethylimidazolium propionate, read-out: Solubility of fluxapyroxad with Solvesso ® 200 ND as oil
  solubility: 39.4 mg/mL
Oil or lipid, 21° C., Oil/IL 20/80 weight ratio, IL N-ethyl-N′-methylimidazolium isononanoate, read-out: Solubility of fluxapyroxad with Solvesso ® 200 ND as oil
  solubility: 28.6 mg/mL
Oil or lipid, 21° C., Oil/IL 60/40 weight ratio, IL N-ethyl-N′-ethylimidazolium propionate, read-out: Solubility of fluxapyroxad with Solvesso ® 200 ND as oil
  solubility: 50.5 mg/mL
Oil or lipid, 21° C., Oil/IL 60/40 weight ratio, IL N-ethyl-N′-methylimidazolium isononanoate, read-out: Solubility of fluxapyroxad with Solvesso ® 200 ND as oil
  solubility: 42.9 mg/mL
Oil or lipid, 21° C., Oil/IL 90/10 weight ratio, IL N-ethyl-N′-ethylimidazolium propionate, read-out: Solubility of fluxapyroxad with Solvesso ® 200 ND as oil
  solubility: 21.3 mg/mL
Oil or lipid, 21° C., Oil/IL 90/10 weight ratio, IL N-ethyl-N′-methylimidazolium isononanoate, read-out: Solubility of fluxapyroxad with Solvesso ® 200 ND as oil
  solubility: 15.3 mg/mL
Oil or lipid, 21° C., Oil/IL 90/10 weight ratio, IL Tetrabutylammonium [2-(2-methoxyethoxy)ethoxy]acetate, read-out: Solubility of fluxapyroxad with Solvesso ® 200 ND as oil
  solubility: 18.4 mg/mL
Oil or lipid, Solubility of fluxapyroxad with Agnique AMD 12 ® (N,N-dimethyldodecanamide, lauryl N,N-dimethylamide) as oil
  solubility: 25.9 mg/mL (≈ 67.9 mM)
Organic solvent or mixture, 21° C., 100 IL (no oil), IL N-ethyl-N′-methylimidazolium isononanoate, read-out: Solubility of fluxapyroxad with Cetiol ® B as oil
  solubility: 9.5 mg/mL (≈ 24.9 mM)
Organic solvent or mixture, 21° C., 100 IL (no oil), IL N-ethyl-N′-methylimidazolium isononanoate, read-out: Solubility of fluxapyroxad with Solvesso ® 200 ND as oil
  solubility: 9.5 mg/mL (≈ 24.9 mM)
Organic solvent or mixture, 21° C., 100 IL (no oil), IL Tetrabutylammonium [2-(2-methoxyethoxy)ethoxy]acetate, read-out: Solubility of fluxapyroxad with Solvesso ® 200 ND as oil
  solubility: 9.5 mg/mL (≈ 24.9 mM)
Organic solvent or mixture, Solubility of fluxapyroxad with Agnique AMD 12 ® (N,N-dimethyldodecanamide, lauryl N,N-dimethylamide) as oil
  solubility: 5 mg/mL (≈ 13.1 mM)
Organic solvent or mixture, Solubility of fluxapyroxad with Cetiol ® B as oil
  solubility: 5 mg/mL (≈ 13.1 mM)
Organic solvent or mixture, Solubility of fluxapyroxad with Solvesso ® 200 ND as oil
  solubility: 5 mg/mL (≈ 13.1 mM)
Cetiol B / N-ethyl-N′-methylimidazolium isononanoate mixture, oil or lipid, 21° C., Oil/IL 20/80 weight ratio, IL N-ethyl-N′-methylimidazolium isononanoate, read-out: Solubility of fluxapyroxad with Cetiol ® B as oil
  solubility: 48.7 mg/mL
Cetiol B / N-ethyl-N′-methylimidazolium isononanoate mixture, oil or lipid, 21° C., Oil/IL 60/40 weight ratio, IL N-ethyl-N′-methylimidazolium isononanoate, read-out: Solubility of fluxapyroxad with Cetiol ® B as oil
  solubility: 46.7 mg/mL
Cetiol B / N-ethyl-N′-methylimidazolium isononanoate mixture, oil or lipid, 21° C., Oil/IL 90/10 weight ratio, IL N-ethyl-N′-methylimidazolium isononanoate, read-out: Solubility of fluxapyroxad with Cetiol ® B as oil
  solubility: 20.7 mg/mL
Cetiol B / cholinium octanoate mixture, oil or lipid, 21° C., Oil/IL 20/80 weight ratio, IL Cholinium octanoate, read-out: Solubility of fluxapyroxad with Cetiol ® B as oil
  solubility: 34.2 mg/mL
Cetiol B oil comprising ionic liquid, oil or lipid, 21° C., Oil/IL 20/80 weight ratio, IL N-butyl-N′-methylimidazolium acetate, read-out: Solubility of fluxapyroxad with Cetiol ® B as oil
  solubility: 54.9 mg/mL
Cetiol B oil comprising ionic liquid, oil or lipid, 21° C., Oil/IL 20/80 weight ratio, IL N-butyl-N′-methylimidazolium dimethylphosphate, read-out: Solubility of fluxapyroxad with Cetiol ® B as oil
  solubility: 44.1 mg/mL
Cetiol B oil comprising ionic liquid, oil or lipid, 21° C., Oil/IL 20/80 weight ratio, IL N-ethyl-N′-ethylimidazolium propionate, read-out: Solubility of fluxapyroxad with Cetiol ® B as oil
  solubility: 60.2 mg/mL
Cetiol B oil comprising ionic liquid, oil or lipid, 21° C., Oil/IL 20/80 weight ratio, IL N-ethyl-N′-methylimidazolium acetate, read-out: Solubility of fluxapyroxad with Cetiol ® B as oil
  solubility: 56.2 mg/mL
Cetiol B oil comprising ionic liquid, oil or lipid, 21° C., Oil/IL 20/80 weight ratio, IL N-ethyl-N′-methylimidazolium dibutylphosphate, read-out: Solubility of fluxapyroxad with Cetiol ® B as oil
  solubility: 16.8 mg/mL
Cetiol B oil comprising ionic liquid, oil or lipid, 21° C., Oil/IL 20/80 weight ratio, IL N-ethyl-N′-methylimidazolium heptanoate, read-out: Solubility of fluxapyroxad with Cetiol ® B as oil
  solubility: 28.4 mg/mL
Cetiol B oil comprising ionic liquid, oil or lipid, 21° C., Oil/IL 20/80 weight ratio, IL N-ethyl-N′-methylimidazolium octanoate, read-out: Solubility of fluxapyroxad with Cetiol ® B as oil
  solubility: 25.7 mg/mL
Cetiol B oil comprising ionic liquid, oil or lipid, 21° C., Oil/IL 20/80 weight ratio, IL N-propyl-N′-propylimidazolium acetate, read-out: Solubility of fluxapyroxad with Cetiol ® B as oil
  solubility: 59.2 mg/mL
Cetiol B oil comprising ionic liquid, oil or lipid, 21° C., Oil/IL 20/80 weight ratio, IL Tetrabutylammonium [2-(2-methoxyethoxy)ethoxy]acetate, read-out: Solubility of fluxapyroxad with Cetiol ® B as oil
  solubility: 38.3 mg/mL
Cetiol B oil comprising ionic liquid, oil or lipid, 21° C., Oil/IL 60/40 weight ratio, IL Cholinium octanoate, read-out: Solubility of fluxapyroxad with Cetiol ® B as oil
  solubility: 33.6 mg/mL
Cetiol B oil comprising ionic liquid, oil or lipid, 21° C., Oil/IL 60/40 weight ratio, IL N-butyl-N′-methylimidazolium acetate, read-out: Solubility of fluxapyroxad with Cetiol ® B as oil
  solubility: 50.6 mg/mL
